pEC50: −log10 of the molar value. Like-named read-outs stand apart in the source and are kept apart here. Where only a bound is given, the exact number is not on record here.

Holding throughout (format): cell-based
The test system of one data set is uninfected MT2 cells. The data set can be described thus: Compound cytotoxicity, XTT-based colorimetric assay. To be noted: uninfected MT2 cells, day 4, XTT. The method, boiled down: (§1)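 CC50 derived from XTT colorimetric signal measured on day 4 in MT2 cells that were not infected. All other steps followed the antiviral assay protocol.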
Data set [1] deals with recombinant NL4-3 virus (nef section replaced with Renilla luciferase gene) in MT-2 cells. The experiment in a line: HIV cell culture assay (antiviral activity, luciferase readout). The method, boiled down:
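Reporter virus is produced in 293T cells and its titer set in MT-2 cells by luciferase activity. MT-2 cells are then infected in the presence of serially diluted compound for 4-5 days. Luciferase is quantified and EC50 fitted to the median effect equation.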

Data set [2] in a line: Compound cytotoxicity, XTT-based colorimetric assay. Particulars: human. The method, boiled down: as §1
Setting [3] is: uninfected MT2 cells, day 4, XTT, read-out: CC50.
[4] abbreviates: Renilla, NL43, MT-2 cells infected for 4-5 days with recombinant NL4-3 Renilla luciferase virus.

For the molecule `Cc1cc(C2(F)CCC(F)(F)CC2)nc2nc([C@H](Cc3cc(F)cc(F)c3)NC(=O)Cn3nc(C(F)F)c4c3C(F)(F)[C@@H]3C[C@H]43)n(-c3ccc(Cl)c4c(NS(C)(=O)=O)nn(C[C@@H](C)N5C[C@H](F)C[C@H](F)C5)c34)c(=O)c12` (atropisomer, axis not shown; (P)) [Example 703, N-[(1S)-1-[(3P)-3-{4-chloro-1-[(2S)-2-[(3R,5S)-3,5-difluoropiperidin-1-yl]propyl]-3-methanesulfonamido-1H-indazol-7-yl}-5-methyl-4-oxo-7-(1,4,4-trifluorocyclohexyl)-3H,4H-pyrido[2,3-d]pyrimidin-2-yl]-2-(3,5-difluorophenyl)ethyl]-2-[(2S,4R)-9-(difluoromethyl)-5,5-difluoro-7,8-diazatricyclo[4.3.0.0^2,^4]nona-1(6),8-dien-7-yl]acetamide], the CC50 in the data set with uninfected MT2 cells was above 20 nM. In addition, in data set [1] (MT-2 cells infected for 4-5 days with recombinant NL4-3 Renilla luciferase virus), the pEC50 is 10.77.
Turning to `Cc1cc(C2CCC(F)(F)CC2)nc2nc([C@H](Cc3cc(F)cc(F)c3)NC(=O)Cn3nc(C(F)F)c4c3C(F)(F)[C@@H]3C[C@H]43)n(-c3ccc(Cl)c4c(NS(C)(=O)=O)nn(CCN5CC6C(C5)C6(F)F)c34)c(=O)c12` (stereo partly drawn) [Example 312, N-[(1S)-1-[(3P)-3-[4-chloro-1-(2-{6,6-difluoro-3-azabicyclo[3.1.0]hexan-3-yl}ethyl)-3-methanesulfonamido-1H-indazol-7-yl]-7-(4,4-difluorocyclohexyl)-5-methyl-4-oxo-3H,4H-pyrido[2,3-d]pyrimidin-2-yl]-2-(3,5-difluorophenyl)ethyl]-2-[(2S,4R)-9-(difluoromethyl)-5,5-difluoro-7,8-diazatricyclo[4.3.0.0^2,^4]nona-1(6),8-dien-7-yl]acetamide], the CC50 at 4 days in data set [2] (setting [3]) is above 50 nM. Further, the pEC50 in data set [1] (setting [4]) is 10.68.
Regarding `COCCCn1nc(NS(C)(=O)=O)c2c(Cl)ccc(-n3c([C@H](Cc4cc(F)cc(F)c4)NC(=O)Cn4nc(C(F)F)c5c4C(F)(F)[C@@H]4C[C@H]54)nc4nc(C5CCC(F)(F)CC5)cc(NCCC5CCCCO5)c4c3=O)c21` (stereo partly drawn) [Example 563, N-[(1S)-1-[(3P)-3-[4-chloro-3-methanesulfonamido-1-(3-methoxypropyl)-1H-indazol-7-yl]-7-(4,4-difluorocyclohexyl)-5-{[2-(oxan-2-yl)ethyl]amino}-4-oxo-3H,4H-pyrido[2,3-d]pyrimidin-2-yl]-2-(3,5-difluorophenyl)ethyl]-2-[(2S,4R)-9-(difluoromethyl)-5,5-difluoro-7,8-diazatricyclo[4.3.0.0^2,^4]nona-1(6),8-dien-7-yl]acetamide], the CC50 at 4 days in data set [2] (setting [3]) was above 20 nM. Also, in data set [1] (setting [4]), the pEC50 was 10.72.
For the molecule `COCCCn1nc(NS(C)(=O)=O)c2c(Cl)ccc(-n3c([C@H](Cc4cc(F)cc(F)c4)NC(=O)Cn4nc(C(F)F)c5c4C(F)(F)[C@@H]4C[C@H]54)nc4nc(C5CCC(F)(F)CC5)cc(NCCC5CCO5)c4c3=O)c21` (stereo partly drawn) [Example 564, N-[(1S)-1-[(3P)-3-[4-chloro-3-methanesulfonamido-1-(3-methoxypropyl)-1H-indazol-7-yl]-7-(4,4-difluorocyclohexyl)-5-{[2-(oxetan-2-yl)ethyl]amino}-4-oxo-3H,4H-pyrido[2,3-d]pyrimidin-2-yl]-2-(3,5-difluorophenyl)ethyl]-2-[(2S,4R)-9-(difluoromethyl)-5,5-difluoro-7,8-diazatricyclo[4.3.0.0^2,^4]nona-1(6),8-dien-7-yl]acetamide], in data set [2] (setting [3]), the CC50 at 4 days is above 20 nM. The pEC50 in data set [1] (setting [4]) was 10.92.
Molecule `Cc1cc(C2(F)CCC(F)(F)CC2)nc2nc([C@H](Cc3cc(F)cc(F)c3)NC(=O)Cn3nc(C(F)F)c4c3C(F)(F)[C@@H]3C[C@H]43)n(-c3ccc(Cl)c4c(NS(C)(=O)=O)nn(CCN5CC6CC(C5)O6)c34)c(=O)c12` [Example 588, N-[(1S)-1-[(3P)-3-[4-chloro-3-methanesulfonamido-1-(2-{6-oxa-3-azabicyclo[3.1.1]heptan-3-yl}ethyl)-1H-indazol-7-yl]-5-methyl-4-oxo-7-(1,4,4-trifluorocyclohexyl)-3H,4H-pyrido[2,3-d]pyrimidin-2-yl]-2-(3,5-difluorophenyl)ethyl]-2-[(2S,4R)-9-(difluoromethyl)-5,5-difluoro-7,8-diazatricyclo[4.3.0.0^2,^4]nona-1(6),8-dien-7-yl]acetamide] returned a CC50 at 4 days in data set [2] above 20 nM. Further, the pEC50 in data set [1] (setting [4]) was 11.10.
Molecule `Cc1cc(C2(F)CCC(F)(F)CC2)nc2nc([C@H](Cc3cc(F)cc(F)c3)NC(=O)Cn3nc(C4CC4)c4c3C[C@@H]3C[C@H]43)n(-c3ccc(Cl)c4c(NS(C)(=O)=O)nn(CCN5CC6CC(C5)O6)c34)c(=O)c12` [Example 591, N-[(1S)-1-[(3P)-3-[4-chloro-3-methanesulfonamido-1-(2-{6-oxa-3-azabicyclo[3.1.1]heptan-3-yl}ethyl)-1H-indazol-7-yl]-5-methyl-4-oxo-7-(1,4,4-trifluorocyclohexyl)-3H,4H-pyrido[2,3-d]pyrimidin-2-yl]-2-(3,5-difluorophenyl)ethyl]-2-[(2S,4S)-9-cyclopropyl-7,8-diazatricyclo[4.3.0.0^2,^4]nona-1(6),8-dien-7-yl]acetamide] gave a CC50 at 4 days in data set [2] above 20 nM. Besides, the pEC50 in data set [1] (setting [4]) is 11.22.
